According to patent publication US20190142954A1, “POLYMER-BONDED CA4 PHARMACEUTICAL COMPOUND AND PREPARATION METHOD THEREFOR” (priority 2016, published 2019):

Assays:
[1] = tested on: C26 murine colon cancer cells; experiment: Therapeutic effect on tumor by single administration (pathological H&E analysis); format: in vivo; settings: C26 tumor in Balb/C mice, tail vein injection, 50 mg CA4/kg, 72 hours
Method: 6 Balb/C mice (5-6 weeks old, female, body weight of approximately 20 g) were utilized, and C26 murine colon cancer cells were seeded at the right underarm at 2.0×10^6/mouse, respectively. […] The administration dosage was 50 mg CA4/kg body weight. The mice were sacrificed after 72 hours. Tumor was collected, and pathological H&E analysis was performed.

[2] = tested on: C26 cells; experiment: Tumor inhibition effect of polymer-bonded CA4 pharmaceutical compound; format: in vivo; settings: C26 tumor in Balb/C mice, 50.0 mg CA4/kg on day 1, 5 and 9, observation until day 17
Method: The administration dosage was 50.0 mg CA4/kg body weight. Tumor was measured 3 times per week and body weights of mice were recorded, and observation was not stopped until day 17.

Compound: COc1ccc(/C=C\c2cc(OC)c(OC)c(OC)c2)cc1OP(=O)([O-])[O-].[Na+].[Na+] [CA4P, Combretastatin A4 phosphate disodium]
- tumor pathological analysis after single administration [1]: a wide range of recurrence occurred in the tumor
- tumor inhibition rate [2]: 24.0%
